This is an account of results in patent US20120107861A1, “METHOD OF DETERMINING RISK OF ARRHYTHMIA” (priority 2010, published 2012).

The structures appear in SMILES notation. Like-named read-outs stand apart in the source and are kept apart here.

For series [1] the following is noted: maximum therapeutic plasma concentration, cited from earlier work.
The subject of series [2] is human iPSC-derived cardiomyocytes (iCells). To be noted: for IB20: lowest concentration producing IBR ≥0.2 (≥20% irregular beats over one minute); for amplitude of impedance: amplitude of each beat. On the procedure: Cell Culture. hiPSC-derived cardiomyocytes (iCells) from Cellular Dynamics International (CDT) were thawed in Plating Media (CDI and plated as single cells onto 0.1% Gelatin (Sigma)-coated, 6-well tissue-culture plates (Corning) at a density of 2.2−2.7×10^6 cells per well. Cells were cultured for 3-5 d at 37° C., 7% CO2 prior to re-plating onto xCELLigence® 96-well cardio e-plates (ACEA/Roche Applied Sciences) or microelectrode arrays (MEAs, Multichannel Systems). The media was changed every 2 d after plating using Maintenance Media (CDI), pre-warmed to 37° C. to minimize the temperature shock on cells.
xCELLigence® cardio e-plates and MEA Re-plating. iCells cultured in 6-well plates were harvested by twice washing in dPBS (GIBCO) then lifted with 0.5% Trypsin-EDTA (GIBCO), incubated at 37° C., 7% CO2. Trypsin was quenched with Maintenance Media and cells were collectively centrifuged at 69 g for 5 minutes and resuspended in Maintenance Media to yield the target density. For cardio e-plate reseeding, cells were plated at a target density of 5×10^4 per well, estimating 80% seeding efficiency. Cardio e-plates were coated with 0.1% Gelatin for 3 h at 37° C. Background impedance measurements for cardio e-plates were made with the final volume of media equilibrated to 37° C. but without cells, immediately prior to reseeding the cells. The cells were monitored every 1 h by a 20 s sweep duration by the xCELLigence® RTCA cardio system at its maximum sampling rate (77 Hz) prior to initiating experimentation.
xCELLigence® and MEA Experimentation. Compound stocks were prepared in DMSO or dH2O at 1000 fold the highest tested concentration. For xCELLigence® experimentation, compound stocks were serially diluted in Maintenance Media in a separate 96-well tissue culture plate (Corning) at twice the target concentration. The dilution plate was incubated and equilibrated to 37° C. prior to cell exposure. […] All compounds were tested as n≧3 on multiple cardio e-plates. The xCELLigence® monitored changes to the beating for periodic 20 s sweep durations at 77 Hz.
Data Analysis. Data were first analyzed by the built-in analysis modules of xCELLigence® and MEAs systems, initial results were then exported into in-house developed Microsoft Excel templates for further semi-auto analysis. […] To calculate the “Predicted Proarrhythmic Score” (PPS), we first determined a “Irregular Beat Ratio” (IBR). The IBR was defined as the ratio of arrhythmic beat counts to the total number of beats over one minute. IBR values for each concentration at each selected time-point was averaged from 3 to 5 e-plates. The lowest concentration of drug, that generated a IBR value ≧0.2 was determined and termed “IB20.” Finally, the maximal therapeutic plasma concentration (Cmax) was divided by the IB20 to arrive at the PPS. A PPS >100 is a level of concern for drug-induced arrhythmia. […]

A further series relates to TdP. To be noted: clinical; cited from earlier work.
The test system of the next series is QT interval. To be noted: cited from earlier work.
Series [3] concerns human iPSC-derived cardiomyocytes (iCells). In words: Multi-electrode array (MEA) field potential recording of iPSC-derived cardiomyocytes. The series is classed as cell-based. The conditions noted are these: iPSC-CMs. On the procedure:
MEAs were prepared according to manufacturer guidelines. Briefly, microelectrodes in 6-well MEA dishes were coated with 2 μL Fibronectin (Sigma) diluted 1:20 and incubated at 37° C. for 3 h. Cells were reseeded at the target density of 3×10^4 cells in a 2 μL delivery to microelectrodes and incubated at 37° C., 7% CO2 for 3 h prior to filling each well with Maintenance Media. The media of cardio e-plates and MEAs were changed every 2 d thereafter, using Maintenance Media warmed to 37° C. Cells were cultured for 3-7 d prior to conducting an experiment on cardio e-plates or MEAs.
The wells of the MEAs had half the volume in each well replaced with fresh warm Maintenance Media, immediately prior to experimentation so as to be consistent with the media replacement for xCELLigence® experimentation. MEAs were allowed a 15 min equilibration period within the MEA recorder system (Multichannel Systems), prior to compound exposure. The temperature was maintained at 37° C. and a constant air flow of 95% O2, 5% CO2, was perfused over the MEAs. Compound additions were made in serially increasing additions, recording for 15 min at each concentration. All compounds were tested as n≧4 wells.

The target in the next series is hERG channel (Homo sapiens, UniProt Q12809). The conditions noted are these: cited from earlier work.
Where [4] appears, read: Table I, Cmax/IB20, cut-off >100 as level of concern.

Chain of hERG channel (Q12809 whole entry): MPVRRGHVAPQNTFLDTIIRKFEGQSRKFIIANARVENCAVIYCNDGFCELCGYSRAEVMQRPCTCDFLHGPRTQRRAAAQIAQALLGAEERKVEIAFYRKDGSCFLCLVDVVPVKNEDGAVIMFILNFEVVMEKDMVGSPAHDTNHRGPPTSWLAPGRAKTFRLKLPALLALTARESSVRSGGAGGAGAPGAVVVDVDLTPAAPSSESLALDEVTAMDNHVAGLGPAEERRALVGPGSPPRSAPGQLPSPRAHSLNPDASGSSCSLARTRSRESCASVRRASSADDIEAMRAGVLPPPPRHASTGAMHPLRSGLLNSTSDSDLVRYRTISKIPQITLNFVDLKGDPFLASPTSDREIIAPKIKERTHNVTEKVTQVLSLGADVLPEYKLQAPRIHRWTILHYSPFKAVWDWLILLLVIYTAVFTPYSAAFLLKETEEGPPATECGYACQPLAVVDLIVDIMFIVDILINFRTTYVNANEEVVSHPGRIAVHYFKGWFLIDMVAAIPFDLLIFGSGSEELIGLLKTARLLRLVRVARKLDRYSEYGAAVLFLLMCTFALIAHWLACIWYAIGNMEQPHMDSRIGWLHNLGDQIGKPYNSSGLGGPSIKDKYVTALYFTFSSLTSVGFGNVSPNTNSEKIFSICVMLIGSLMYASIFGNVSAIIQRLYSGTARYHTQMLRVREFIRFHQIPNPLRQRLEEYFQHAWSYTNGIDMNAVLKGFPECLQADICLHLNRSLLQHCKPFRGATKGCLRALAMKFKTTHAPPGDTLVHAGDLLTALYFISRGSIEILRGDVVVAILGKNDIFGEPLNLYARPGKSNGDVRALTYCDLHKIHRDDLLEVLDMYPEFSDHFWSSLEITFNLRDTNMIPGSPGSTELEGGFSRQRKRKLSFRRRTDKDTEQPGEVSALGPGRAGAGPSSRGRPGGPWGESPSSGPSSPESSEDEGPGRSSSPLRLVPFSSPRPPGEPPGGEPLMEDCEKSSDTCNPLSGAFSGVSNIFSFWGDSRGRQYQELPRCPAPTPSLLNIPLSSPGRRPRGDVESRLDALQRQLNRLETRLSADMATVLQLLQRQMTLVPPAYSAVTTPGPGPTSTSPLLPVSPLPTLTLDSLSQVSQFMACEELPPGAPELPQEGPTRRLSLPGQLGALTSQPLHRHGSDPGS

Broadly, the Cmax is the highest concentration seen after dosing. In the case of `CCN1C[C@]2(COC)[C@H](O)C[C@H](OC)[C@@]34[C@@H]5C[C@@]6(O)[C@H](OC(=O)c7ccccc7)[C@@H]5[C@@](OC(C)=O)([C@@H]([C@H](OC)[C@H]23)[C@@H]14)[C@@H](O)[C@@H]6OC` [Aconitine], the Cmax in series [1] (Table I) and in series [1] (Table II) was 77 nM throughout. In addition, the “concentration showing arrhythmia relative to the efficacious concentration” value in series [2] is “arrhythmia at concentrations less than the efficacious concentration”. Besides, the figures for the PPS in series [2] (setting [4]) and in series [2] (human) were 2567 and 0.4, respectively. Besides, the IB20 in series [2] (Table I) and in series [2] (Table II) was 0.03 µM throughout.
Take `COc1cc2nc(N(C)CCCNC(=O)C3CCCO3)nc(N)c2cc1OC` (centres unmarked) [Alfuzosin]: the Cmax in series [1] (Table I) and in series [1] (Table II) was 56 nM in each case. In the series on TdP, the “TdP liability” value is recorded as “free of TdP”. Also, the “QT prolongation” value with QT interval (in patients / in vivo) is reported as “induce QT prolongation”. Moreover, the “effect at concentrations substantially higher than employed in vivo” value in series [2] was “beat rate reduction and appearance of arrhythmic beats”.
Regarding `CCCCc1oc2ccccc2c1C(=O)c1cc(I)c(OCCN(CC)CC)c(I)c1` [Amiodarone], in the series on TdP, the “TdP liability” value was “very low risk of TdP”.
Regarding `CC1(C)S[C@@H]2[C@H](NC(=O)[C@H](N)c3ccc(O)cc3)C(=O)N2[C@H]1C(=O)O` [Amoxicillin], the Cmax in series [1] (Table I) and in series [1] (Table II) was 17000 nM in each case. Besides, the “TdP liability” value in the series on TdP was “devoid of QT prolongation and TdP liability”. Besides, the “QT prolongation” value in the series with QT interval (in patients / in vivo) is “devoid of QT prolongation”. In addition, the IB20 in series [2] (Table I) is given as >1,000 μM; in series [2] (Table II), >1,000,000 nM.
Consider `CC(=O)Oc1ccccc1C(=O)O` [Aspirin], for which the highest concentration (Cmax) in series [1] (Table I) and in series [1] (Table II) was 10000 nM throughout. For the same compound, in the series on TdP, the “TdP liability” value is “devoid of QT prolongation and TdP liability”. In the series on QT interval (in patients / in vivo), the “QT prolongation” value is “devoid of QT prolongation”.
As for `COc1ccc(CCN2CCC(Nc3nc4ccccc4n3Cc3ccc(F)cc3)CC2)cc1` [Astemizole], the Cmax in series [1] (Table I) and in series [1] (Table II) was 8 nM each time.
For `C[C@H](CS)C(=O)N1CCC[C@H]1C(=O)O` [Captopril], the Cmax in series [1] (Table I) and in series [1] (Table II) was 2470 nM throughout. The “QT prolongation” value in the series with QT interval (human, in vivo) was “devoid of QT prolongation”. In addition, the PPS in series [2] (setting [4]) is on record as less than 25.
`COc1cc(N)c(Cl)cc1C(=O)NC1CCN(CCCOc2ccc(F)cc2)CC1OC` (centres unmarked) [Cisapride]: the Cmax in series [1] (Table I) and in series [1] (Table II) was 129 nM in each case. Moreover, the “alterations in beat patterns / arrhythmic beats” value in series [2] is on record as “Irregular beating patterns were observed”.
Consider `CN(CCOc1ccc(NS(C)(=O)=O)cc1)CCc1ccc(NS(C)(=O)=O)cc1` [Dofetilide], for which the Cmax in series [1] (Table I) and in series [1] (Table II) was 6 nM throughout. Besides, the PPS in series [2] (setting [4]) amounted to 2000; in series [2] (human), 0.5.
As for `Cc1cccc(CCN2CCC(C(=O)c3ccc(NS(C)(=O)=O)cc3)CC2)n1` [E-4031], the beat rate result in series [2] (iPSC-CMs, impedance) is recorded as “dose-dependent reduction in beat rate”.
In the case of `CC[C@H]1OC(=O)[C@H](C)[C@@H](O[C@H]2C[C@@](C)(OC)[C@@H](O)[C@H](C)O2)[C@H](C)[C@@H](O[C@@H]2O[C@H](C)C[C@H](N(C)C)[C@H]2O)[C@](C)(O)C[C@@H](C)C(=O)[C@H](C)[C@@H](O)[C@]1(C)O` [Erythromycin], the Cmax in series [1] (Table I) and in series [1] (Table II) was 34100 nM in each case. In addition, in series [2], the “alterations in beat patterns / arrhythmic beats” value is listed as “Irregular beating patterns were observed”.
As for `CNCCC(Oc1ccc(C(F)(F)F)cc1)c1ccccc1` (centres unmarked) [Fluoxetine], the highest concentration (Cmax) in series [1] (Table I) and in series [1] (Table II) was 485 nM in each case. Also, in the series with TdP, the “TdP liability” value is listed as “very low risk of TdP”.
In the case of `CC(C)NCC(O)c1ccc(O)c(O)c1` (centres unmarked) [Isoproterenol], the “beat rate in MEA” value in series [3] is on record as “increased”. Also, the amplitude of impedance entry in series [2] (iPSC-CMs) is given as “increased”. Also, the beat rate entry in series [2] (iPSC-CMs, impedance) is “increased”.
As for `COc1c(N2C[C@@H]3CCCN[C@@H]3C2)c(F)cc2c(=O)c(C(=O)O)cn(C3CC3)c12` [Moxifloxacin], the Cmax in series [1] (Table I) and in series [1] (Table II) was 10300 nM each time. In addition, on hERG channel, the “hERG inhibition” value is reported as “inhibit hERG”. Further, the “QT prolongation” value in the series on QT interval (human, in vivo) is “induce QT prolongation”. Further, the “alterations in beat patterns / arrhythmic beats” value in series [2] was “not torsadogenic”. Moreover, the PPS is reported as less than 103 in series [2] (setting [4]) and more than 10 in series [2] (human).
Take `C[C@@H]1O[C@@H](O[C@H]2C[C@@H](O)[C@]3(CO)[C@H]4[C@H](O)C[C@]5(C)[C@@H](C6=CC(=O)OC6)CC[C@]5(O)[C@@H]4CC[C@]3(O)C2)[C@H](O)[C@H](O)[C@H]1O` [Ouabain]: the Cmax in series [1] (Table I) and in series [1] (Table II) was 170 nM in each case. Besides, the “amplitude in MEA” value in series [3] (for nifedipine Ca2+-peak amplitude) is “increased”. Moreover, the PPS in series [2] (setting [4]) is 5667; in series [2] (human), 0.2. Also, the IB20 in series [2] (Table I) and in series [2] (Table II) was 0.03 µM in each case. For the same compound, the “alterations in beat patterns / arrhythmic beats” value in series [2] (human iPSC-CMs) is recorded as “Irregular beating patterns were observed”. For the same compound, in series [2] (iPSC-CMs), the amplitude of impedance entry is “increased”.
Regarding `C=C[C@H]1C[N@@]2CC[C@H]1C[C@@H]2[C@@H](O)c1ccnc2ccc(OC)cc12` [Quinidine], the Cmax in series [1] (Table I) and in series [1] (Table II) was 21600 nM throughout. For the same compound, in series [2], the “alterations in beat patterns / arrhythmic beats” value is given as “Irregular beating patterns were observed”. In addition, the PPS is 2158 in series [2] (setting [4]) and 0.5 in series [2] (human).
For `CS(=O)(=O)c1ccc(C2=C(c3ccccc3)C(=O)OC2)cc1` [Rofecoxib], the Cmax in series [1] (Table I) and in series [1] (Table II) was 1020 nM throughout. Moreover, in the series with TdP, the “TdP liability” value is “devoid of QT prolongation and TdP liability”. Besides, the “QT prolongation” value in the series on QT interval (in patients / in vivo) was “devoid of QT prolongation”.
Take `CC(C)NCC(O)c1ccc(NS(C)(=O)=O)cc1` (centres unmarked) [Sotalol]: the Cmax in series [1] (Table I) and in series [1] (Table II) was 14700 nM each time. Further, in series [2], the “alterations in beat patterns / arrhythmic beats” value is reported as “Irregular beating patterns were observed”.
For `CC(C)(C)c1ccc(C(O)CCCN2CCC(C(O)(c3ccccc3)c3ccccc3)CC2)cc1` (centres unmarked) [Terfenadine], the maximum concentration (Cmax) in series [1] (Table I) and in series [1] (Table II) was 300 nM throughout.
For the compound `NC1=N[C@H](O)[C@H]2[C@H]3O[C@]4(O)O[C@@H]([C@@H](O)[C@@]2(N1)[C@@H]4O)[C@]3(O)CO` [Tetrodotoxin], in series [2], the beat rate result was “reduction in beat rate”.
In the case of `CCN(c1ccccc1)c1cc(=NC)n(C)c(C)n1.Cl` [ZD7288], the beat rate result in series [2] (iPSC-CMs, impedance) was “reduction in beat rate”.
In the case of `Cc1ccc2c(c1)C(=O)C1(O)CCN(c3ccccc3)C1=N2` (centres unmarked) [blebbistatin], the “electrophysiology of the cardiomyocytes detected by MEA” value in series [3] is listed as “remained unchanged”. In series [2] (iPSC-CMs, myosin II inhibition), the “cardiomyocyte beating using impedance” value is on record as “no cardiomyocyte beating was observed”.
